From the NIST ThermoML archive (doi:10.1021/acs.jced.8b00370)

Assay: mn = molality of the nth substance listed, in mol/kg
Details: 100 kPa, Liquid; for speed of sound: Frequency=3 MHz, Single path-length method; for mass density: Vibrating tube method

OC[C@H]1O[C@@](CO)(O[C@H]2O[C@H](CO)[C@@H](O)[C@H](O)[C@H]2O)[C@@H](O)[C@@H]1O [D-sucrose] + O
Details | mass density, 288.15 K [kg/m3] | mass density, 298.15 K [kg/m3] | mass density, 308.15 K [kg/m3] | mass density, 318.15 K [kg/m3] | speed of sound, 288.15 K [m/s] | speed of sound, 298.15 K [m/s] | speed of sound, 308.15 K [m/s] | speed of sound, 318.15 K [m/s]
m1 = 0.1002 | 1012.01 | 1009.81 | 1006.68 | 1002.77 | 1476.3 | 1506 | 1528.2 | 1544
m1 = 0.2007 | 1024.37 | 1022.04 | 1018.8 | 1014.82 | 1486.2 | 1515 | 1536.5 | 1551.6
m1 = 0.3011 | 1036.19 | 1033.73 | 1030.39 | 1026.34 | 1496 | 1524 | 1544.7 | 1559.1
m1 = 0.4034 | 1047.72 | 1045.13 | 1041.69 | 1037.58 | 1506 | 1533.2 | 1553.1 | 1566.7
m1 = 0.4996 | 1058.12 | 1055.43 | 1051.89 | 1047.73 | 1515.3 | 1541.7 | 1561 | 1574.3
m1 = 0.6018 | 1068.73 | 1065.92 | 1062.29 | 1058.07 | 1525.2 | 1550.6 | 1569.3 | 1581.7
m1 = 0.7022 | 1078.71 | 1075.81 | 1072.09 | 1067.82 | 1534.9 | 1559.3 | 1577.2 | 1589.3
m1 = 0.7978 | 1087.87 | 1084.86 | 1081.07 | 1076.72 | 1543.9 | 1567.4 | 1584.8 | 1596.1
m1 = 0.8955 | 1096.86 | 1093.77 | 1089.9 | 1085.49 | 1552.9 | 1575.6 | 1592.3 | 1603.2
m1 = 0.9969 | 1105.83 | 1102.65 | 1098.71 | 1094.23 | 1562.2 | 1583.8 | 1600.1 | 1611
